Results as given in US20130039956A1, “USE OF NITROCARBOXYLIC ACIDS FOR THE TREATMENT, DIAGNOSIS AND PROPHYLAXIS OF AGGRESSIVE HEALING PATTERNS” (priority 2010, published 2013).

Tests used:
[1] = tested on: Tracheas of adult Wistar rats; assay: Tissue damage due to barotrauma ex vivo (tracheal rings); format: cell-based; conditions: tracheal rings bathed 15 minutes, balloon 4 atm 4 hours; compared with native FA; note: key: 0: not superior to native FA (control); +: Superior to native FA; ++: superior to both; +++: outstanding effect
Description: In order to determine the effects of nitrated fatty acids on mechanical trauma to tracheal cells, an ex vivo model was established. Tracheas of adult Wistar rats sacrificed with thiopental given intraabdominally were carefully resected (harvested). Whole (intact) tracheas were cultured in DMEM 10 (Sigma) supplemented with antibiotic/antimycotic drugs for 48 hours at 37° C. Tracheas were cut into five pieces of equal size. One piece was immediately analyzed, two were bathed in 0.9% saline, one was bathed in a solution containing native fatty acid in SDS (1%), and one was bathed in a solution containing nitro fatty acid, respectively, for 15 minutes each. The inner diameters of the tracheal rings were measured. A non-compliant balloon catheter for use in vascular interventions was chosen, so that the nominal balloon diameter was 15-20% larger than that of the trachea. One tracheal ring pretreated with 0.9% saline was left untreated; the other prepared tracheal rings were mounted on the balloon catheter, which was inflated to a pressure of 4 atm thereafter. Balloons were kept inflated for 4 hours, while being positioned in the culture medium. Thereafter, the tracheal rings were further cultivated in separate vials for 24 hours. In a separate set of investigations, sense/antisense ODNs for HO-1 (Invitrogen) directed against the translation initiation codon in the HO-1 cDNA was used to inhibit hemoxydase-1 synthesis. The cells were transfected using the Superfect transfection reagent (Qiagen) before traumatization. In another set of experiments, the HO inhibitor SnPP IX (Porphyrin Products, London, UK) was added to the culture medium 6 hours before traumatization at a dose of 10 micromol.
For analysis, the rings were cut into small strips using a no touch technique. Viability was tested using a MTT assay and apoptosis using a TUNEL assay. Anti-HO-1 antibodies (StressGen, Tebu, Le-Perray-en-Yvelines, France) were measured by Western blot and immunohistochemistry.

[2] = tested on: Human epithelial lung cells (A549); assay: Membrane protein mediated cytotoxicity (NaF) in epithelial cells, MTT assay; conditions: 10 and 50 μmol, 2 hours preincubation, NaF 1-8 mmol; compared with native FA
Description: Human epithelial lung cells (A549) were cultured and transferred to an isotonic medium. Cell suspensions were incubated with saline solution, native fatty acid (10 and 50 μmol), or nitro fatty acid (10 and 50 μmol) for 2 hours. Sodium fluoride (NaF) was added to achieve concentrations between 1 and 8 mmol. Cells were separated and washed after 24 hours of exposure. The MTT assay was used to evaluate apoptosis rates.

macrophages = assay: Foreign body model (fusion of macrophages, IL-4); format: cell-based; conditions: polymeric coating on stainless steel; compared with native FA; note: key: 0: not superior to native FA (control); +: Superior to native FA; ++: superior to both; +++: outstanding effect
Excerpt: Organisms react to the contact with a not completely biocompatible surface with a stereotypic chain of reactions. This is preceded by aggregation of plasmaproteins which initiate adhesion of monocytes. As a response to incompatibility, structural changes and fusion of those monocytes to form giant cells occur. The formation of giant cells is a key component in the development of a foreign body reaction. […] Predictability of foreign body reaction has been validated in an in-vitro model by monitoring fusion of macrophages in response to IL-4 exposition. Using this model a polymeric coating of a stainless steel support material containing variable amounts of nitro fatty acids or native fatty acids or just coated with the sole polymer were exposed to plasma with various concentrations of vitronectin.

| Compound | Relative effect on tissue damage due to barotrauma [1] | Relative effect on NaF-induced cytotoxicity [2] | Relative efficacy in foreign body model (macrophages) |
| --- | --- | --- | --- |
| 9,10-nitro-cis-oleic acid [compound 10] | ++ |  |  |
| 9,10-nitro-trans-oleic acid [compound 15] | + |  |  |
| CCCCCCCC/C=C(/CCCCCCCC(=O)O)[N+](=O)[O-] [compound 1, 9-nitro cis-oleic acid] | ++ | ++ |  |
| CCCCC/C=C\C/C(=C\CCCCCCCC(=O)O)[N+](=O)[O-] [compound 2, 10-nitro-cis-linoleic acid] | + | ++ |  |
| CCCCCCCC/C(=C/CCCCCCCC(=O)O)[N+](=O)[O-] [compound 3, 10-nitro-cis-oleic acid] | + | + |  |
| CC/C=C\C/C=C\C/C=C(/CCCCCCCC(=O)O)[N+](=O)[O-] [compound 6, 9-nitro-all-cis-9-12,15-octadecatrienoic acid] | + |  |  |
| CCCCCCCC/C=C(/CCCCCCCCCCCCCC(=O)O)[N+](=O)[O-] [compound 8, 15-nitro-cis-15-tetracosenoic acid] | + |  |  |
| CCCCC=C(C=CC=CCCCCCCCC(=O)O)[N+](=O)[O-] [compound 11, 13-nitro-octadeca-9,11,13-trienoic acid] | + |  |  |
| CCCCCC=CCC=C(CC=CCC=CCCCC(=O)O)[N+](=O)[O-] [compound 14, 11-nitro-5,8,11,14-eicosatrienoic acid] | + |  |  |
| CCCCCCCCCCC/C=C(/CCCCC(=O)O)[N+](=O)[O-] [compound 21, 6-nitro-cis-6-octadecenoic acid] |  |  | + |
| CCCCCC=CCC=C(CC=CC/C=C\CCCC(=O)O)[N+](=O)[O-] [compound 22, 11-nitro-cis-5,8,11,14-eicosatetraenoic acid] | + | ++ | ++ |
